Measurements from ChEMBL document CHEMBL1201862, “PubChem BioAssay data set” (2004).
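How tested: cells in 96-well plates exposed to compound for 48 hours at five concentrations. GI50 = concentration required for 50% inhibition of growth.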 Calls of active or inactive are those of the source. No stated cut-off is given here; in the data, active = GI50 up to about 1.1 µM and inactive = higher.

Key:
Experiment in all cases: NCI tumour cell line growth inhibition, 48 h
RPMI-8226 = test system: RPMI-8226
HOP-92 = test system: HOP-92
NCI/ADR-RES = test system: NCI/ADR-RES
SF-295 = test system: SF-295
COLO 205 = test system: COLO 205
T47D = test system: T47D
M14 = test system: M14
A498 = test system: A498
SNB-19 = test system: SNB-19
MCF7 = test system: MCF7
UACC-62 = test system: UACC-62
IGROV-1 = test system: IGROV-1
HT-29 = test system: HT-29
MDA-MB-435 = test system: MDA-MB-435
HCT-116 = test system: HCT-116
Malme-3M = test system: Malme-3M
NCI-H522 = test system: NCI-H522
SK-OV-3 = test system: SK-OV-3
HOP-62 = test system: HOP-62
DU-145 = test system: DU-145
SR = test system: SR
SK-MEL-5 = test system: SK-MEL-5
SF-539 = test system: SF-539
MDA-N = test system: MDA-N
PC-3 = test system: PC-3
SN12C = test system: SN12C
SF-268 = test system: SF-268
SK-MEL-2 = test system: SK-MEL-2
NCI-H226 = test system: NCI-H226
HCC 2998 = test system: HCC 2998
OVCAR-4 = test system: OVCAR-4
NCI-H460 = test system: NCI-H460
SNB-75 = test system: SNB-75
NCI-H23 = test system: NCI-H23
RXF 393 = test system: RXF 393
OVCAR-3 = test system: OVCAR-3
UACC-257 = test system: UACC-257
UO-31 = test system: UO-31
HCT-15 = test system: HCT-15
CAKI-1 = test system: CAKI-1
ACHN = test system: ACHN
MOLT-4 = test system: MOLT-4
A549 = test system: A549
786-0 = test system: 786-0
SW-620 = test system: SW-620
KM12 = test system: KM12
HL-60 = test system: HL-60
TK-10 = test system: TK-10
Hs-578T = test system: Hs-578T
MDA-MB-231 = test system: MDA-MB-231
U-251 = test system: U-251
LOX IMVI = test system: LOX IMVI
OVCAR-5 = test system: OVCAR-5
OVCAR-8 = test system: OVCAR-8
BT-549 = test system: BT-549
SK-MEL-28 = test system: SK-MEL-28
K562 = test system: K562
EKVX = test system: EKVX
CCRF-CEM = test system: CCRF-CEM

O=C(Oc1cc(=O)c(OC(=O)c2ccccc2)co1)c1ccccc1
GI50 (RPMI-8226): 47.4 µM (inactive) | GI50 (HOP-92): > 100 µM (inactive) | GI50 (NCI/ADR-RES): 83.2 µM (inactive) | GI50 (SF-295): 51.1 µM (inactive) | GI50 (COLO 205): > 100 µM (inactive) | GI50 (T47D): 65.3 µM (inactive) | GI50 (M14): > 100 µM (inactive) | GI50 (A498): > 100 µM (inactive) | GI50 (SNB-19): 92.7 µM (inactive) | GI50 (MCF7): > 100 µM (inactive) | GI50 (UACC-62): > 100 µM (inactive) | GI50 (IGROV-1): > 100 µM (inactive) | GI50 (HT-29): 84.5 µM (inactive) | GI50 (MDA-MB-435): > 100 µM (inactive) | GI50 (HCT-116): 65 µM (inactive) | GI50 (Malme-3M): 25.3 µM (inactive) | GI50 (NCI-H522): 26.9 µM (inactive) | GI50 (SK-OV-3): > 100 µM (inactive) | GI50 (HOP-62): 80 µM (inactive) | GI50 (DU-145): > 100 µM (inactive) | GI50 (SR): 31.7 µM (inactive) | GI50 (SK-MEL-5): > 100 µM (inactive) | GI50 (SF-539): 46.5 µM (inactive) | GI50 (MDA-N): > 100 µM (inactive) | GI50 (PC-3): 91 µM (inactive) | GI50 (SN12C): 45.8 µM (inactive) | GI50 (SF-268): 90.4 µM (inactive) | GI50 (SK-MEL-2): > 100 µM (inactive) | GI50 (NCI-H226): 85.3 µM (inactive) | GI50 (HCC 2998): > 100 µM (inactive) | GI50 (OVCAR-4): 95.7 µM (inactive) | GI50 (NCI-H460): > 100 µM (inactive) | GI50 (SNB-75): 45.6 µM (inactive) | GI50 (NCI-H23): > 100 µM (inactive) | GI50 (RXF 393): 72.9 µM (inactive) | GI50 (OVCAR-3): > 100 µM (inactive) | GI50 (UACC-257): > 100 µM (inactive) | GI50 (UO-31): > 100 µM (inactive) | GI50 (HCT-15): 42.6 µM | GI50 (CAKI-1): > 100 µM (inactive) | GI50 (ACHN): > 100 µM (inactive) | GI50 (MOLT-4): 33.3 µM (inactive) | GI50 (A549): 84.7 µM (inactive) | GI50 (786-0): 49.4 µM (inactive) | GI50 (SW-620): > 100 µM (inactive) | GI50 (KM12): > 100 µM (inactive) | GI50 (HL-60): 34.8 µM (inactive) | GI50 (TK-10): > 100 µM (inactive) | GI50 (Hs-578T): 93.8 µM (inactive) | GI50 (MDA-MB-231): > 100 µM (inactive) | GI50 (U-251): 64.9 µM (inactive) | GI50 (LOX IMVI): 36.9 µM (inactive) | GI50 (OVCAR-5): > 100 µM (inactive) | GI50 (OVCAR-8): > 100 µM (inactive) | GI50 (BT-549): > 100 µM (inactive) | GI50 (SK-MEL-28): 55.6 µM (inactive)

COc1ccc(CC[N+]2(C)COc3cc4oc(=O)cc(C)c4cc3C2)cc1OC (stereo not drawn)
GI50 (RPMI-8226): > 100 µM (inactive) | GI50 (HOP-92): > 100 µM (inactive) | GI50 (NCI/ADR-RES): > 100 µM (inactive) | GI50 (SF-295): > 100 µM (inactive) | GI50 (COLO 205): > 100 µM (inactive) | GI50 (T47D): > 100 µM (inactive) | GI50 (M14): > 100 µM (inactive) | GI50 (A498): > 100 µM (inactive) | GI50 (SNB-19): > 100 µM (inactive) | GI50 (MCF7): > 100 µM (inactive) | GI50 (UACC-62): > 100 µM (inactive) | GI50 (IGROV-1): > 100 µM (inactive) | GI50 (K562): 2.45 µM (inactive) | GI50 (HT-29): > 100 µM (inactive) | GI50 (MDA-MB-435): > 100 µM (inactive) | GI50 (HCT-116): > 100 µM (inactive) | GI50 (Malme-3M): > 100 µM (inactive) | GI50 (NCI-H522): > 100 µM (inactive) | GI50 (SK-OV-3): > 100 µM (inactive) | GI50 (HOP-62): > 100 µM (inactive) | GI50 (DU-145): > 100 µM (inactive) | GI50 (SR): 0.0782 µM (active) | GI50 (SK-MEL-5): > 100 µM (inactive) | GI50 (MDA-N): > 100 µM (inactive) | GI50 (PC-3): > 100 µM (inactive) | GI50 (SN12C): > 100 µM (inactive) | GI50 (SF-268): > 100 µM (inactive) | GI50 (SK-MEL-2): > 100 µM (inactive) | GI50 (NCI-H226): > 100 µM (inactive) | GI50 (HCC 2998): > 100 µM (inactive) | GI50 (OVCAR-4): > 100 µM (inactive) | GI50 (SNB-75): > 100 µM (inactive) | GI50 (EKVX): > 100 µM (inactive) | GI50 (NCI-H23): > 100 µM (inactive) | GI50 (RXF 393): > 100 µM (inactive) | GI50 (OVCAR-3): > 100 µM (inactive) | GI50 (UACC-257): > 100 µM (inactive) | GI50 (UO-31): > 100 µM (inactive) | GI50 (HCT-15): > 100 µM | GI50 (CAKI-1): > 100 µM (inactive) | GI50 (ACHN): > 100 µM (inactive) | GI50 (MOLT-4): 1.61 µM (inactive) | GI50 (A549): > 100 µM (inactive) | GI50 (786-0): > 100 µM (inactive) | GI50 (SW-620): > 100 µM (inactive) | GI50 (KM12): > 100 µM (inactive) | GI50 (CCRF-CEM): > 100 µM (inactive) | GI50 (HL-60): > 100 µM (inactive) | GI50 (TK-10): > 100 µM (inactive) | GI50 (Hs-578T): > 100 µM (inactive) | GI50 (MDA-MB-231): > 100 µM (inactive) | GI50 (U-251): > 100 µM (inactive) | GI50 (LOX IMVI): > 100 µM (inactive) | GI50 (OVCAR-5): > 100 µM (inactive) | GI50 (OVCAR-8): > 100 µM (inactive) | GI50 (BT-549): > 100 µM (inactive) | GI50 (SK-MEL-28): > 100 µM (inactive)
